Measured values: patent US20180258381A1, “BIO-LAMINA BIOREACTORS AND METHODS OF MAKING AND USING THE SAME” (Oregon State University, priority 2015, published 2018)

What was measured:
MDH = MDH activity reactivity assay (methanol SOUR), inhibitor trials; type: cell-based, M. trichosporium OB3b
Experimental: The procedure for measuring methanol dehydrogenase (MDH) activity by measuring the specific oxygen uptake rate (SOUR) has been tested on M. trichosporium OB3b cultures grown both in batch and in the chemostat. M. trichosporium OB3b cells were harvested using centrifugation. The supernatant was poured off and the cells were re-suspended in fresh media lacking a carbon source. Phosphate buffer solution was added to a sample chamber in which dissolved oxygen (DO) was measure with a DO probe. When the DO of the solution stabilized, the re-suspended cells were added to the sample chamber to measure baseline oxygen uptake by the cells without a carbon food source present. Methanol was then added to test for MDH activity. The difference in the oxygen uptake rates illustrates the MDH activity of the culture.
Metabolic activity test methods have been developed to monitor specific activities in M. trichosporium OB3b cultures. A naphthalene oxidation assay was used to determine if sMMO is being expressed. An ethylene to ethylene oxide reaction assay and a methane oxidation assay was used to quantify MMO activity, and a methanol oxidation assay was used to estimate MDH activity. Concurrent batch metabolic tests can be conducted to investigate methanol inhibition of methane oxidation, cyclopropane to cyclopropanol conversion and concurrent/subsequent cyclopropanol inhibition of MDH activity, the effect of cyclopropanol inhibition on growth yield, and the effects of high oxygen concentration.
The effect of salts NaCl, NH4Cl and CaCl2 on MMO and MDH activity was evaluated using the reactivity assays described above.

OB3b expressing sMMO = assay: Packed bed reactor with cyclopropane inhibitor; type: cell-based, Methylosinus trichosporium (OB3b)
Experimental: A Packed Bed Reactor was used to evaluate the conversion of methane to methanol by cell of OB3b expressing sMMO. […] Cyclopropanol is expected to be produced via oxidation of cyclopropane by MMO in this example.
A continuous flow PBR was constructed using a glass HPLC column with the dimensions 2.5 cm ID and 13 cm packing height. Methane, oxygen, and the inhibitor feed solutions dissolved in media were contained within the two 100 mL syringes. The column was packed with alginate beads with sMMO-expressing OB3b formed in-situ under aseptic conditions Immobilized culture performance was evaluated in the PBR over a range of flow rates to achieve reactor residence times (τ) ranging from 0.2, 0.3, 0.5, and 8.5 hours. Two separate experiments were carried out, one for methane transformation (conversion) without the cyclopropane inhibitor and the other with the inhibitor (FIG. 26). For the methane utilization studies, the influent solution was developed by adding 7 mL methane and 21 mL oxygen to the 100 ml syringes. For the inhibition studies 1 ml of cyclopropane was added. After equilibration for 20 minutes, the gases were ejected from the syringes, and the syringes connected to the column inlet.
An integrated form of the Monod equation was used to analyze the results from the PBR experiment. It relates substrate conversion across a packed bed reactor, X, to the residence time, τ (min), and initial substrate concentration So (mg/L).
The solids lines in FIG. 26 were computed with the integrated Monod model using the Ks and kmax obtained from the batch data. The simulation used an effectiveness factor (η) of 1 indicating no loss in cell activity. Good fit was obtained between the simple analytical solution, equation above, and the experimental observations for the uninhibited case. The maximum conversion was 95±0.8% at a τ of 8 hours. For the cyclopropane inhibition embodiment, the same kmax as non-inhibited case was used, but with a Ks four times the uninhibited case to investigate the plausibility of competitive inhibition.

## C1CC1 [CP, cyclopropane]
MDH; CP 03 μmol
  Fraction of Activity Remaining, MDH: 0.9
MDH; CP 32 μmol
  Fraction of Activity Remaining, MDH: 0.2
MDH; CP 64 μmol
  Fraction of Activity Remaining, MDH: 0.1
OB3b expressing sMMO; cyclopropane-amended column vs uninhibited
  effect on methane transformation: Inhibition of methane transformation was observed
OB3b expressing sMMO; residence time 4 hours
  Methane conversion: 68±11%
  methanol production selectivity (percentage of methane converted to methanol): 102±39%
OB3b expressing sMMO; residence time 8 hours
  Methane conversion: 95±1%
  methanol production selectivity (percentage of methane converted to methanol): 91±32%
